# From patent publication US20220347175A1, “PYRIDAZINONE DERIVATIVE” (Sumitomo Dainippon Pharma Co., Ltd., priority 2018, published 2022)
# Biological target: T1, human Nav1.1 (Homo sapiens, UniProt P35498)
# T1 construct: host or cells: HEK293
# Experiment: Amplification of Nav1.1-derived voltage-dependent sodium current (Nav1.1 current), cell line stably expressing human Nav1.1, automated patch clamp
# Format: cell-based
# Settings: for activation at 10 µM: read-out: Nav1.1 current amplification rate (%)
# Method: Test 1: Evaluation of the Amplification of Nav1.1-Derived Voltage-Dependent Sodium Current (Nav1.1 Current) by Using a Cell Line Stably Expressing Human Nav1.1
# (1) Preparation of Test Compounds
# Test compounds were prepared by dissolving in DMSO at 200 times of the concentration at evaluation, and diluting the obtained solution to twice the concentration of evaluation with an extracellular fluid (135 mmol/L NaCl, 4 mmol/L KCl, 1 mmol/L MgCl2, 5 mmol/L CaCl2, 5 mmol/L Glucose, 10 mmol/L HEPES).
# (2) Induction and Measurement of Nav1.1 Current
# A HEK293 cell line stably expressing human Nav1.1 (cat #CYL3009, Millipore, USA, Human Embryonic Kidney 293) was purchased, and used in the present test. Nav1.1 current was induced by stimulating Ramp wave voltage. Detection of current which accompanied with the stimulation of voltage was carried out by a patch-clamp voltage-clamp method using HTS automated patch clamp system (SynchroPatch 768PE, Nanion Technologies GmbH, Germany). Only cells with more than 500 pA of voltage-dependent sodium channel current were used for the evaluation of the activity of compounds on Nav1.1 current because there was the possibility that currents derived from endogenous voltage-dependent sodium channels accounted for large proportion in cells with less than 500 pA of voltage-dependent sodium channel current which was induced by stimulating Ramp wave voltage.
# (3) Pharmacologic Effect on Nav1.1 Current
# The effect of test compounds on the amplification of Nav1.1-derived voltage-dependent sodium current was evaluated by using a cell line stably expressing human Nav1.1 and HTS automated patch clamp system. In other words, test compounds were added in an extracellular fluid containing 1% DMSO, and evaluated as a change of the peak value of Nav1.1 current and the area under the curve (AUC).
# (4) Method for Pharmacological Evaluation
# The Nav1.1 current amplification rates of test compounds were calculated by the following formula:
# Nav1.1 current amplification rate (%)=100×[the peak value of Nav1.1 current or the area under the curve after the addition of test compounds]/[the peak value of Nav1.1 current or the area under the curve before the addition of test compounds]−100
# [1] = concentration of each compound 1 μmol/L (Test Result 6)
# [2] = compound 50 μmol/L, HEK293 stably expressing human Nav1.1
# [3] = 10 μmol/L compound (Test Result 5)
SMILES,Nav1.1 current amplification rate (%) [1],Nav1.1 current amplification rate (%) [3],other results
CC1CC=C(c2ccc(=O)n(CC(=O)N3CCc4c(CNCC(F)F)cccc43)n2)CC1 (racemic) [Example 312],80%,–,–
COCCNCc1cccc2c1CCN2C(=O)Cn1nc(C2=CCC(C)CC2)ccc1=O (racemic) [Example 314],9%,–,–
CC1CC=C(c2ccc(=O)n(CC(=O)N3CCc4c(CNC5CCC5)cccc43)n2)CC1 (racemic) [Example 315],19%,–,–
CC1CC=C(c2ccc(=O)n(CC(=O)N3CCc4c(CNC5CCOCC5)cccc43)n2)CC1 (racemic) [Example 317],41%,–,–
CC1CC=C(c2ccc(=O)n(CC(=O)N3CCc4cc(OCC(C)(C)O)ccc43)n2)CC1 (racemic) [Example 320],10%,–,–
CC1CC=C(c2ccc(=O)n(CC(=O)Nc3ccc4c(cnn4C)c3)n2)CC1 (racemic) [Example 336],68%,–,–
CC1CC=C(c2ccc(=O)n(CC(=O)Nc3cnc4nccn4c3)n2)CC1 (racemic) [Example 337],52%,–,–
Cc1cc2nc(NC(=O)Cn3nc(C4=CCC(C)CC4)ccc3=O)ccn2n1 (racemic) [Example 340],–,–,Nav1.1 current amplification rate (%) [2]: 41%
CC1CC=C(c2ccc(=O)n(CC(=O)Nc3ccc4nncn4c3)n2)CC1 (racemic) [Example 341],–,–,Nav1.1 current amplification rate (%) [2]: 202%
CC1CC=C(c2ccc(=O)n(CC(=O)Nc3ccc4nccn4c3)n2)CC1 (racemic) [Example 343],44%,–,–
CC1CC=C(c2ccc(=O)n(CC(=O)Nc3ccc4cncn4c3)n2)CC1 (racemic) [Example 344],69%,–,–
Cc1cc2ccc(NC(=O)Cn3nc(C4=CCC(C)CC4)ccc3=O)cn2n1 (racemic) [Example 347],37%,–,–
CC1CC=C(c2ccc(=O)n(CC(=O)Nc3cnc4c(cnn4C)c3)n2)CC1 (racemic) [Example 348],57%,–,–
CC1CC=C(c2ccc(=O)n(CC(=O)Nc3ccc4ncnn4n3)n2)CC1 (racemic) [Example 350],31%,–,–
Cc1cc2ncnn2cc1NC(=O)Cn1nc(C2=CCC(C)CC2)ccc1=O (racemic) [Example 351],–,–,Nav1.1 current amplification rate (%) [2]: 98%
Cc1c(NC(=O)Cn2nc(C3=CCC(C)CC3)ccc2=O)ccc2ncnn12 (racemic) [Example 353],–,–,Nav1.1 current amplification rate (%) [2]: 32%
CC1CC=C(c2ccc(=O)n(CC(=O)Nc3ccc4ncccc4c3)n2)CC1 (racemic) [Example 357],–,–,Nav1.1 current amplification rate (%) [2]: 43%
CC1CC=C(c2ccc(=O)n(CC(=O)Nc3ccn4cnnc4c3)n2)CC1 (racemic) [Example 358],71%,–,–
CC1CC=C(c2ccc(=O)n(CC(=O)Nc3cccc(-n4ccnc4)c3)n2)CC1 (racemic) [Example 363],174%,–,–
Cc1cc(NC(=O)Cn2nc(C3=CCC(C)CC3)ccc2=O)cc(C)n1 (racemic) [Example 364],25%,–,–

SMILES,Nav1.1 current amplification rate (%) [1],Nav1.1 current amplification rate (%) [3],other results
CC1CC=C(c2ccc(=O)n(CC(=O)Nc3cncc(CN(C)C)c3)n2)CC1 (racemic) [Example 365],–,–,Nav1.1 current amplification rate (%) [2]: 32%
COC1CN(Cc2cncc(NC(=O)Cn3nc(C4=CCC(C)CC4)ccc3=O)c2)C1 (racemic) [Example 366],–,–,Nav1.1 current amplification rate (%) [2]: 37%
CC1CC=C(c2ccc(=O)n(CC(=O)Nc3cncc(C4=CCN(C)C4)c3)n2)CC1 (racemic) [Example 367],38%,–,–
CC1CC=C(c2ccc(=O)n(CC(=O)NC3CCN(c4ccccc4)CC3)n2)CC1 (racemic) [Example 368],–,18%,–
CC1CC=C(c2ccc(=O)n(CC(=O)Nc3ccnc(CO)c3)n2)CC1 (racemic) [Example 370],–,35%,–
CC1CC=C(c2ccc(=O)n(CC(=O)Nc3ccnc(C4=CCN(C)C4)c3)n2)CC1 (racemic) [Example 371],–,–,Nav1.1 current amplification rate (%) [2]: 64%
CC1CC=C(c2ccc(=O)n(CC(=O)NC3CN(c4ccccc4)C3)n2)CC1 (racemic) [Example 372],–,52%,–
CC1CC=C(c2ccc(=O)n(CC(=O)Nc3ccnc(CN4CCOCC4)c3)n2)CC1 (racemic) [Example 373],–,35%,–
CC1CC=C(c2ccc(=O)n(CC(=O)Nc3ccc(C4=CCN(C)C4)nc3)n2)CC1 (racemic) [Example 374],–,18%,–
CC1CC=C(c2ccc(=O)n(CC(=O)Nc3ccc(-c4cnn(C)c4)nc3)n2)CC1 (racemic) [Example 375],–,173%,–
CC1CC=C(c2ccc(=O)n(CC(=O)Nc3ccc(CO)nc3)n2)CC1 (racemic) [Example 376],–,44%,–
CC1CC=C(c2ccc(=O)n(CC(=O)Nc3ccc(-n4ccnc4)nc3)n2)CC1 (racemic) [Example 377],134%,–,–
CC1CC=C(c2ccc(=O)n(CC(=O)Nc3cncc(-c4cnn(C)c4)c3)n2)CC1 (racemic) [Example 378],37%,–,–
CC1CC=C(c2ccc(=O)n(CC(=O)Nc3ccnc(-c4cnn(C)c4)c3)n2)CC1 (racemic) [Example 379],–,147%,–
Cc1ncc(-c2cncc(NC(=O)Cn3nc(C4=CCC(C)CC4)ccc3=O)c2)o1 (racemic) [Example 380],82%,–,–
CC1CC=C(c2ccc(=O)n(CC(=O)Nc3cncc(C4=COCCC4)c3)n2)CC1 (racemic) [Example 382],13%,–,–
CC1CC=C(c2ccc(=O)n(CC(=O)N3CCCN(c4cccnc4)CC3)n2)CC1 (racemic) [Example 384],15%,–,–
CC1CC=C(c2ccc(=O)n(CC(=O)N3CC=C(c4ccccn4)C3)n2)CC1 (racemic) [Example 385],–,–,Nav1.1 current amplification rate (%) [2]: 42%
CC1CC=C(c2ccc(=O)n(CC(=O)N3CC=C(c4cccnc4)C3)n2)CC1 (racemic) [Example 386],–,–,Nav1.1 current amplification rate (%) [2]: 126%
CC1CC=C(c2ccc(=O)n(CC(=O)N3CC=C(c4ccncc4)C3)n2)CC1 (racemic) [Example 387],19%,–,–

SMILES,Nav1.1 current amplification rate (%) [1],Nav1.1 current amplification rate (%) [3],other results
CC1CC=C(c2ccc(=O)n(CC(=O)N3CC=C(c4ccccc4)C3)n2)CC1 (racemic) [Example 388],–,37%,–
CC1CC=C(c2ccc(=O)n(CC(=O)N3CCC(Cc4ccccc4)C3)n2)CC1 (racemic) [Example 389],–,53%,–
CC1CC=C(c2ccc(=O)n(CC(=O)N3CCC(Oc4ccccc4)CC3)n2)CC1 (racemic) [Example 390],–,50%,–
CC1CC=C(c2ccc(=O)n(CC(=O)N3CCN(Cc4ccncc4)CC3)n2)CC1 (racemic) [Example 392],–,53%,–
CC1CC=C(c2ccc(=O)n(CC(=O)N3CCN(Cc4cccnc4)CC3)n2)CC1 (racemic) [Example 393],–,19%,–
"CC1CCN(c2ccc(=O)n(CC(=O)Nc3ccc(C#N)cc3)n2)CC1 [Example 1, N-(4-cyanophenyl)-2-[3-(4-methylpiperidin-1-yl)-6-oxopyridazin-1(6H)-yl]acetamide]",–,–,activation at 10 µM [3]: 246%
"CC1(C)CCN(c2ccc(=O)n(CC(=O)Nc3ccc(C#N)cc3)n2)CC1 [Example 2, N-(4-Cyanophenyl)-2-[3-(4,4-dimethylpiperidin-1-yl)-6-oxopyridazin-1(6H)-yl]acetamide]",–,–,activation at 10 µM [3]: 148%
N#Cc1ccc(NC(=O)Cn2nc(N3CCCCC3)ccc2=O)cc1 [Example 3],–,40%,–
N#Cc1ccc(NC(=O)Cn2nc(N3CCCC3)ccc2=O)cc1 [Example 4],–,3%,–
N#Cc1ccc(NC(=O)Cn2nc(N3CCC(F)(F)CC3)ccc2=O)cc1 [Example 5],–,6%,–
CC(C)(C)C1CCN(c2ccc(=O)n(CC(=O)Nc3ccc(C#N)cc3)n2)CC1 [Example 6],–,35%,–
N#Cc1ccc(NC(=O)Cn2nc(N3CCCC(O)C3)ccc2=O)cc1 (stereo not shown) [Example 7],–,3%,–
N#Cc1ccc(NC(=O)Cn2nc(N3CCCC(C(N)=O)C3)ccc2=O)cc1 (stereo not shown) [Example 8],–,4%,–
COC1CCN(c2ccc(=O)n(CC(=O)Nc3ccc(C#N)cc3)n2)CC1 [Example 9],–,11%,–
N#Cc1ccc(NC(=O)Cn2nc(N3CCC(C(F)(F)F)CC3)ccc2=O)cc1 [Example 10],–,124%,–
N#Cc1ccc(NC(=O)Cn2nc(N3CCCCCC3)ccc2=O)cc1 [Example 11],–,205%,–
N#Cc1ccc(NC(=O)Cn2nc(N3CCCCCCC3)ccc2=O)cc1 [Example 12],–,241%,–
CC1CCCN(c2ccc(=O)n(CC(=O)Nc3ccc(C#N)cc3)n2)C1 (stereo not shown) [Example 13],–,76%,–
